Laboratory results reported in the supplement of paper PMC10307832.

Tests used:
Assay in all cases: relative viability (nuclei count vs DMSO), 5 days (fraction); higher = more cells survive
[1] = compound: Cc1ccc(C(=O)Nc2ccc(CN3CCN(C)CC3)c(C(F)(F)F)c2)cc1C#Cc1cnc2cccnn12 [Ponatinib] + O=C(c1cc(Cc2n[nH]c(=O)c3ccccc23)ccc1F)N1CCN(C(=O)C2CC2)CC1 [Olaparib] (partner 8 µM)
Outline: (§1)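 Lung cancer cell lines in 1536-well plates got either a single drug or a fixed anchor-drug dose together with five library-drug doses (not always all listed) in √10 steps, by pin tool, on the day after seeding. Nuclei were counted after 5 days, and relative viability is the treated-to-vehicle ratio of nuclei counts. Values are medians of duplicate plates.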

[2] = compound: Cc1ccc(C(=O)Nc2ccc(CN3CCN(C)CC3)c(C(F)(F)F)c2)cc1C#Cc1cnc2cccnn12 [Ponatinib] + Nc1nc2[nH]cc(CCc3ccc(C(=O)N[C@@H](CCC(=O)O)C(=O)O)cc3)c2c(=O)[nH]1 [Pemetrexed] (partner 0.2 µM)
Outline: as §1

[3] = compound: Cc1ccc(Nc2nccc(N(C)c3ccc4c(C)n(C)nc4c3)n2)cc1S(N)(=O)=O [Pazopanib] + O=C(CCCCCCC(=O)Nc1ccccc1)NO [Vorinostat] (partner 1 µM)
Outline: as §1

[4] = compound: Cc1ccc(Nc2nccc(N(C)c3ccc4c(C)n(C)nc4c3)n2)cc1S(N)(=O)=O [Pazopanib] + CS(=O)(=O)N1CCN(Cc2cc3nc(-c4cccc5[nH]ncc45)nc(N4CCOCC4)c3s2)CC1 [Pictilisib] (partner 1 µM)
Outline: as §1

Cell Line	relative viability ([1]; first compound 0.002 µM)	relative viability ([1]; first compound 0.006325 µM)	relative viability ([1]; first compound 0.06325 µM)	relative viability ([1]; first compound 0.2 µM)	relative viability ([2]; first compound 0.002 µM)	relative viability ([2]; first compound 0.006325 µM)	relative viability ([2]; first compound 0.06325 µM)	relative viability ([2]; first compound 0.2 µM)	relative viability ([3]; first compound 0.01 µM)	relative viability ([3]; first compound 0.03162 µM)	relative viability ([3]; first compound 0.1 µM)	relative viability ([3]; first compound 0.3162 µM)	relative viability ([3]; first compound 1 µM)	relative viability ([4]; first compound 0.01 µM)	relative viability ([4]; first compound 0.03162 µM)	relative viability ([4]; first compound 0.1 µM)	relative viability ([4]; first compound 0.3162 µM)	relative viability ([4]; first compound 1 µM)
201T	0.833	0.853	0.878	0.806	0.319	0.324	0.346	0.352	0.892	0.949	0.937	1.02	0.843	0.602	0.603	0.709	0.742	0.695
A549	0.299	0.384	0.394	0.384	–	–	–	–	–	–	–	–	–	0.494	0.477	0.63	0.589	0.423
A-427	0.707	0.835	0.842	0.66	0.928	0.986	0.981	0.908	0.862	0.941	0.825	0.903	0.971	0.612	0.705	0.692	0.746	0.782
ABC-1	0.893	0.776	0.776	0.693	–	–	–	–	1.04	1.38	0.731	1.2	1.27	0.635	0.839	0.82	0.799	0.86
BEN	1.06	1.18	1.13	0.92	0.678	0.718	0.749	0.767	0.593	0.606	0.533	0.591	0.563	0.514	0.621	0.515	0.567	0.488
CAL-12T	0.735	0.663	0.822	0.683	1.13	1.14	1.31	1.21	0.742	0.649	0.744	0.754	0.834	0.335	0.461	0.527	0.401	0.423
COR-L23	0.277	0.349	0.335	0.303	0.19	0.193	0.189	0.19	0.446	0.5	0.424	0.508	0.514	0.649	0.771	0.805	0.962	0.881
COR-L 105	0.711	0.709	0.723	0.747	1.09	1.07	1.25	1.04	0.867	0.959	0.765	0.878	0.882	0.4	0.473	0.411	0.443	0.417
Calu-6	0.541	0.556	0.497	0.493	–	–	–	–	–	–	–	–	–	0.874	1.01	0.993	0.849	0.877
ChaGo-K-1	0.438	0.486	0.41	0.436	0.264	0.258	0.262	0.246	0.743	0.772	0.756	0.757	0.727	0.543	0.876	0.632	0.613	0.759
EBC-1	0.625	0.756	0.77	0.644	–	–	–	–	–	–	–	–	–	0.402	0.508	0.376	0.412	0.394
EKVX	0.956	0.897	0.971	0.767	0.382	0.493	0.427	0.374	0.674	0.731	0.79	0.742	0.604	0.411	0.402	0.415	0.507	0.517
EMC-BAC-2	0.434	0.455	0.482	0.398	0.436	0.404	0.468	0.395	–	0.512	0.232	0.472	0.432	0.457	0.576	0.623	0.579	0.604
EPLC-272H	0.777	0.9	0.778	0.624	0.397	0.359	0.388	0.408	0.389	0.432	0.682	0.652	0.535	0.264	0.335	0.27	0.35	0.274
H3255	0.573	0.534	0.602	0.554	0.527	0.607	0.614	0.546	0.709	0.841	0.701	0.901	0.793	0.452	0.454	0.427	0.417	0.582
HARA	0.757	0.825	0.777	0.874	0.262	0.23	0.246	0.282	0.475	0.424	0.605	0.438	0.605	0.26	0.332	0.493	0.479	0.343
HCC-15	0.673	0.721	0.767	0.738	0.223	0.217	0.226	0.224	0.878	0.906	0.867	0.893	0.791	0.703	0.773	0.718	0.857	1.06
HCC-44	0.942	0.997	0.923	0.929	0.636	0.653	0.688	0.622	1.11	1.01	1.08	1.04	1.15	0.421	0.599	0.659	0.521	0.673
HCC-78	0.836	0.819	0.825	0.726	0.576	0.885	0.865	0.894	–	0.455	0.433	0.412	0.446	0.2	0.216	0.194	0.214	0.202
